Source: patent US8946268B2, “Modulators of HEC1 activity and methods therefor” (Taivex Therapeutics, Inc., priority 2010, dated 2015)
Values joined by “and” are separate entries in the source; they are usually repeats but may differ in a detail not shown here. Equal entries are not always repeated. Where two headings read alike, the source gives them in different places.

Key:
[1] = Pharmacokinetics in rats after oral administration; type: in vivo, SD rat; settings: compound 42 oral
Protocol: (§1) Bioavailability: Selected compounds were administered to rats per os or via injection following well known procedures.

[2] = Pharmacokinetics in rats after i.v. injection; type: in vivo, SD rat; settings: compound 42 i.v.
Protocol: as §1

Hela = test: Antiproliferative activity (MTS assay), Hela; type: cell-based; settings: Homo sapiens, HeLa, 96 h, Hela cells
Protocol: (§2) Antiproliferative effect is expressed as IC50 values in microMolar final concentration.
(§3) Cells were grown at 37° C. in a humidified atmosphere with 5% CO2 and 95% air. Cells were seeded in 96 well tissue culture plates.
(§4) Compound treatment started after overnight incubation of cells (TO). […] Compound was added to the plate in triplicate wells, and the plates were then incubated for 96 hours. DMSO (compounds diluents) was also included and added to the plate in control wells. Cell viability was then determined by MTS assay using CellTiter 96® AQueous non-radioactive cell proliferation assay system (Promega). A plate reader (Molecular Devices, Vmax) was used to read the optical densities, and the results were used to deduce concentration-response curves. […] The results were analyzed using linear regression software (GraphPad Prism 5; GraphPad Software Inc.).
(§5) The GI50 values (growth inhibitory activity) were determined to emphasize on the correction for the cell count at time zero; thus, the % inhibition of test drug were: [1−(T−T0)/(C−T0)]×100; and these value were used to plot the concentration-response curves, and then analyzed with linear regression software (GraphPad Prism 5).

K562 = test: Antiproliferative activity (MTS assay), K562; type: cell-based; settings: Homo sapiens, K562, 96 h, K562 cells
Protocol: as §2, §3, §4, §5

MDA-MB-231 = test: Antiproliferative activity (MTS assay), MDA-MB-231; type: cell-based; settings: Homo sapiens, MDA-MB-231, 96 h, MDA-MB-231 cells
Protocol: as §2, §3, §4, §5

MDA-MB-468 = test: Antiproliferative activity (MTS assay), MDA-MB-468; type: cell-based; settings: Homo sapiens, MDA-MB-468, 96 h, MDA-MB-468 cells
Protocol: as §2, §3, §4, §5

[3] = SD rat, individual rats No. 1-3

Row | IC50 (Hela) [nM] | IC50 (K562) [nM] | IC50 (MDA-MB-231) [nM] | IC50 (MDA-MB-468) [nM] | further results | Structure (SMILES)
1 |  |  |  |  | half-life ([1]; Sprague-Dawley, rat, serum, po, 20 mg/kg, SD rat, individual rats No. 1-3): 3.28 h; MRT ([1]; Sprague-Dawley, rat, serum, po, 20 mg/kg, SD rat, individual rats No. 1-3, read-out: MRT): 3.46 h; Tmax ([1]; Sprague-Dawley, rat, serum, po, 20 mg/kg, SD rat, individual rats No. 1-3, read-out: Tmax): 1.5 h; half-life ([1]; Sprague-Dawley, rat, serum, po, 20 mg/kg, formulation and route otherwise identical to compound 82, SD rat, Mean): 3.18 h; MRT ([1]; Sprague-Dawley, rat, serum, po, 20 mg/kg, formulation and route otherwise identical to compound 82, SD rat, Mean, read-out: MRT): 3.36 h; Tmax ([1]; Sprague-Dawley, rat, serum, po, 20 mg/kg, formulation and route otherwise identical to compound 82, SD rat, Mean, read-out: Tmax): 1.33 h; MRT [1, 3]: 3.78 h and 2.83 h; T1/2 [1, 3]: 3.30 h and 2.97 h; Tmax [1, 3]: 1 h; C0 ([2]; Sprague-Dawley, rat, serum, iv, 2 mg/kg, SD rat, individual rats No. 1-3, read-out: C0): 11500 ng/mL; MRT ([2]; Sprague-Dawley, rat, serum, iv, 2 mg/kg, SD rat, individual rats No. 1-3, read-out: MRT): 1.3 h; half-life ([2]; Sprague-Dawley, rat, serum, iv, 2 mg/kg, formulation and route otherwise identical to compound 82, SD rat, Mean): 1.52 h; C0 ([2]; Sprague-Dawley, rat, serum, iv, 2 mg/kg, formulation and route otherwise identical to compound 82, SD rat, Mean, read-out: C0): 11500 ng/mL; MRT ([2]; Sprague-Dawley, rat, serum, iv, 2 mg/kg, formulation and route otherwise identical to compound 82, SD rat, Mean, read-out: MRT): 1.26 h; C0 [2, 3]: 11344 ng/mL and 11625 ng/mL; MRT [2, 3]: 1.20 h and 1.28 h; T1/2 [2, 3]: 1.40 h and 0.99 h and 2.16 h | COc1cc(C)c(-c2csc(NC(=O)c3ccncc3)n2)c(C)c1 [Compound 42]
2 | 200 | 210 | 110 | 240 |  | CCOc1cc(C)c(-c2csc(NC(=O)c3ccnc(Cl)c3)n2)c(C)c1 [Compound 66]
3 | > 10000 | > 10000 | > 10000 | > 10000 |  | COc1ccc(-c2nc(NC(=O)c3ccc(C#N)cc3)sc2C)cc1 [Compound 39]
4 | 5130 | 4960 | 4240 | 3610 |  | CC(=O)Nc1cc(C)c(-c2csc(NC(=O)Nc3ccncc3)n2)c(C)c1 [Compound 68]
5 | > 10000 | 1960 | 1240 | 1010 |  | Cc1cc(C)c(-c2csc(NC(=O)c3ccncc3)n2)c(C)n1 [Compound 44]
6 | 8750 | 5600 | 3120 | 6180 |  | Cc1cc(C)c(-c2csc(NC(=O)c3ccnnc3)n2)c(C)c1 [Compound 8]
7 | 230 | 140 | 170 | 220 |  | Cc1cc(Sc2ccccc2)cc(C)c1-c1csc(NC(=O)c2ccncc2)n1 [Compound 115]
8 | > 10000 | > 10000 | > 10000 | > 10000 |  | COc1ccc(-c2nc(NC(=O)c3cccnc3)sc2C)cc1 [Compound 14]
9 | 150 | 110 | 120 | 130 |  | Cc1ccc(Sc2cc(C)c(-c3csc(NC(=O)c4ccncc4)n3)c(C)c2)cc1 [Compound 116]
10 | 900 | 320 | 440 | 810 |  | COc1ccc(Oc2cc(C)c(-c3csc(NC(=O)c4ccncc4C)n3)c(C)c2)cc1 [Compound 121]
11 | > 10000 | > 10000 | > 10000 | > 10000 |  | COc1cc(-c2csc(NC(=O)c3cncs3)n2)ccc1O [Compound 50]
